Measurements from ChEMBL document CHEMBL3286289, “Synthesis and structure-activity relationship of non-phosphorus-based fructose-1,6-bisphosphatase inhibitors: 2,5-Diphenyl-1,3,4-oxadiazoles” (Eur J Med Chem, 2014).
Active and inactive are the calls of the source. The rule behind the calls is not given here.

Key:
Hepatocyte [1] = test: Inhibition of gluconeogenesis in Sprague-Dawley rat hepatocytes assessed as decrease in glucose output at 2 mM after 4 hrs by colorimetric assay relative to control; type: functional; conditions: values are per cent of control
[2] = Inhibition of human recombinant FBPase-mediated fructose-6-phosphate formation by coupled spectrophotometric assay
Hepatocyte [3] = test: Inhibition of gluconeogenesis in Sprague-Dawley rat hepatocytes assessed as decrease in glucose output at 40 uM after 4 hrs by colorimetric assay relative to control; type: functional; conditions: values are per cent of control
Hepatocyte [4] = test: Inhibition of gluconeogenesis in Sprague-Dawley rat hepatocytes assessed as decrease in glucose output at 20 uM after 4 hrs by colorimetric assay relative to control; type: functional; conditions: values are per cent of control
Hepatocyte [5] = test: Inhibition of gluconeogenesis in Sprague-Dawley rat hepatocytes assessed as glucose output at 80 to 160 uM after 4 hrs by colorimetric assay; type: functional, cell-based
Hepatocyte [6] = test: Inhibition of gluconeogenesis in Sprague-Dawley rat hepatocytes assessed as decrease in glucose output at 10 uM after 4 hrs by colorimetric assay relative to control; type: functional; conditions: values are per cent of control

CN(C)C(=N)NC(=N)N [METFORMIN]
response, % of control at 2000 µM (Hepatocyte [1]): 75%

COc1ccc(CC(=O)Nc2cccc(-c3nnc(-c4cccc(Cl)c4)o3)c2)cc1OC
IC50 [2]: 15.5 µM

Cc1ccc(-c2nnc(-c3cccc(NC(=O)CCCCCN4CCOCC4)c3)o2)cc1
response, % of control at 40 µM (Hepatocyte [3]): 85.2%
response, % of control at 20 µM (Hepatocyte [4]): 83.6%
IC50 [2]: 2.54 µM
inhibition (Hepatocyte [5]): inactive
response, % of control at 10 µM (Hepatocyte [6]): 83.3%

Cc1ccc(-c2nnc(-c3cccc(NC(=O)CCCN4CCOCC4)c3)o2)cc1
IC50 [2]: 4.96 µM

Nc1ncnc2c1ncn2[C@@H]1O[C@H](COP(=O)(O)O)[C@@H](O)[C@H]1O [ADENOSINE PHOSPHATE]
IC50 [2]: 1.3 µM

Cc1ccc(-c2nnc(-c3cccc(NC(=O)CCCCN4CCOCC4)c3)o2)cc1
IC50 [2]: 5.01 µM

COc1ccc(CC(=O)Nc2cccc(-c3nnc(-c4ccc(C)cc4)o3)c2)cc1OC
response, % of control at 40 µM (Hepatocyte [3]): 103%
response, % of control at 20 µM (Hepatocyte [4]): 93.5%
IC50 [2]: 4.51 µM
response, % of control at 10 µM (Hepatocyte [6]): 96.7%
